# Positions of bridges follow the written chain, without caps; N, C: chain ends. Non-standard residues stand in square brackets, D forms with d. Residues, ends and D or L forms follow the SMILES beside them. Phe(3,4,5-F3) = N[C@@H](Cc1cc(F)c(F)c(F)c1)C(=O)O; Bip = N[C@@H](Cc1ccc(-c2ccccc2)cc1)C(=O)O; Hyp = O=C(O)[C@@H]1C[C@@H](O)CN1; NMeF = CN[C@@H](Cc1ccccc1)C(=O)O; 4Pal = N[C@@H](Cc1ccncc1)C(=O)O; dHyp = O=C(O)[C@H]1C[C@H](O)CN1; NMeNle = CCCC[C@H](NC)C(=O)O; dPip = O=C(O)[C@H]1CCCCN1; NMeA = CN[C@@H](C)C(=O)O; Orn = NCCC[C@H](N)C(=O)O; Dab = NCC[C@H](N)C(=O)O; Dap = NC[C@H](N)C(=O)O; Sar = CNCC(=O)O
# How the values were obtained:
# Human PD-L1/PD-1 = biological target: T1, Human PD-L1/PD-1 (Homo sapiens, UniProt Q9NZQ7); assay: HTRF PD-1-Ig/PD-L1-His binding assay (human PD-L1); settings: cluster symbol; read-out: HTRF IC50 cluster
# T1 construct: made in house; host or cells: HEK293T
# T1 sequence (Q9NZQ7 with tags, fused parts or gaps): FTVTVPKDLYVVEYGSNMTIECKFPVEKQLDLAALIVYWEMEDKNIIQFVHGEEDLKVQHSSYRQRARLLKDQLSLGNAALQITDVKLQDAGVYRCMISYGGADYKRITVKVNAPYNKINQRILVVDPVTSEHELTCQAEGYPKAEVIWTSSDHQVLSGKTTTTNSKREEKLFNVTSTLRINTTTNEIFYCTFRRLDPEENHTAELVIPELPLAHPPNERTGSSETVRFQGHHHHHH
# Summary of the method: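 Soluble Fc-fused PD-1 and His-tagged PD-L1 (truncated before the transmembrane region) were combined in dPBS with 0.1% (w/v) BSA and 0.05% (v/v) Tween-20. Binding was read by HTRF using europium cryptate anti-Ig antibody (1 nM final) and APC anti-His antibody (20 nM final).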
# [1] = biological target: T2, LK35.2-hPD-L1 cells / PE-labeled PD-1-Ig (Homo sapiens, UniProt Q9NZQ7); assay: LK35.2-hPD-L1 cell binding high-content screening assay; format: cell-based; settings: cell binding assay, cell line not given; cluster symbol; read-out: CBA IC50 cluster
# T2 construct: expressed in transfected cells; host or cells: LK35.2 mouse B cell line
# T2 sequence (Q9NZQ7 19-290): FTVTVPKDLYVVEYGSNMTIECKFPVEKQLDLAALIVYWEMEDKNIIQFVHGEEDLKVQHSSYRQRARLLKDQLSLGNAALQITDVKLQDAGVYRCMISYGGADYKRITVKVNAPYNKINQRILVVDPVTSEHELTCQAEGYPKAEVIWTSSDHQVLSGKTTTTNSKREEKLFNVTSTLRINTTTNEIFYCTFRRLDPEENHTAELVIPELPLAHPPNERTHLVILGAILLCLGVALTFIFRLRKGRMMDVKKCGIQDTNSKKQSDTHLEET
# Summary of the method: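 Compound effect on PD-1/PD-L1 binding is measured by imaging cell-associated phycoerythrin signal. Human PD-1-Ig (PE on Ig tag, 1 nM final) is applied with compound to a murine B cell line overexpressing human PD-L1 for 1 h at 37 °C in serum-containing RPMI.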
Compound,IC50 (Human PD-L1/PD-1) [nM],IC50 [1] [nM]
CCCC[C@H]1C(=O)N(C)CC(=O)N[C@@H](CC(N)=O)C(=O)N[C@@H](C(C)C)C(=O)N(C)[C@@H](Cc2ccccc2)C(=O)N[C@@H](Cc2ccc(O)cc2)C(=O)N(C)CC(=O)N[C@@H](Cc2c[nH]c3ccccc23)C(=O)N[C@@H](Cc2ccc(O)cc2)C(=O)N[C@@H](CCCN)C(=O)N[C@H](C(=O)NCC(N)=O)CSCC(=O)N[C@@H](Cc2ccccc2)C(=O)N[C@@H](Cc2ccncc2)C(=O)N1C [Example 3610] ({CH2CO}-F[4Pal][NMeNle][Sar]NV[NMeF]Y[Sar]WY[Orn]CG-NH2; thioether N-13),6.76 to 30.3,4.78 to 72.9
CCCC[C@H]1C(=O)N(C)CC(=O)N[C@@H](CC(N)=O)C(=O)N[C@@H](C(C)C)C(=O)N(C)[C@@H](Cc2ccccc2)C(=O)N[C@@H](Cc2ccc(O)cc2)C(=O)N(C)CC(=O)N[C@@H](Cc2c[nH]c3ccccc23)C(=O)N[C@@H](Cc2ccc(O)cc2)C(=O)N[C@@H](CCCN)C(=O)N[C@H](C(=O)NCC(N)=O)CSCC(=O)N[C@@H](Cc2ccccc2)C(=O)N[C@@H](Cc2ccc(-c3ccccc3)cc2)C(=O)N1C [Example 3611] ({CH2CO}-F[Bip][NMeNle][Sar]NV[NMeF]Y[Sar]WY[Orn]CG-NH2; thioether N-13),> 30.5,> 74.3
"CCCC[C@H]1C(=O)N2C[C@@H](O)C[C@@H]2C(=O)N[C@@H](CC(N)=O)C(=O)N[C@@H](C(C)C)C(=O)N(C)[C@@H](Cc2ccccc2)C(=O)N[C@@H](Cc2ccc(O)cc2)C(=O)N2CCCC[C@@H]2C(=O)N[C@@H](Cc2c[nH]c3ccccc23)C(=O)N[C@@H](Cc2ccc(O)cc2)C(=O)N[C@@H](CCCN)C(=O)N[C@H](C(=O)NCC(N)=O)CSCC(=O)N[C@@H](Cc2cc(F)c(F)c(F)c2)C(=O)N(C)[C@@H](Cc2ccccc2)C(=O)N1C [Example 3613] ({CH2CO}-[Phe(3,4,5-F3)][NMeF][NMeNle][dHyp]NV[NMeF]Y[dPip]WY[Orn]CG-NH2; thioether N-13)",0.385 to 6.74,0.158 to 4.71
CCCC[C@H]1C(=O)N(C)[C@@H](CCCC)C(=O)N[C@@H](CCCNC(=N)N)C(=O)N[C@H](C(=O)NCC(N)=O)CSCC(=O)N[C@@H](Cc2ccccc2)C(=O)N(C)[C@@H](C)C(=O)N[C@@H](CC(N)=O)C(=O)N2CCC[C@H]2C(=O)N[C@@H](Cc2cnc[nH]2)C(=O)N[C@@H](CC(C)C)C(=O)N(C)CC(=O)N[C@@H](Cc2c[nH]c3ccccc23)C(=O)N[C@@H](CCN)C(=O)N[C@@H](Cc2c[nH]c3ccccc23)C(=O)N1C [Example 5001] ({CH2CO}-F[NMeA]NPHL[Sar]W[Dab]W[NMeNle][NMeNle]RCG-NH2; thioether N-14),0.385 to 6.74,4.78 to 72.9
CCCC[C@H]1C(=O)N(C)[C@@H](CCCC)C(=O)N[C@@H](CCCNC(=N)N)C(=O)N[C@H](C(=O)NCC(N)=O)CSCC(=O)N[C@@H](Cc2ccccc2)C(=O)N(C)[C@@H](C)C(=O)N[C@@H](CC(N)=O)C(=O)N2CCC[C@H]2C(=O)N[C@@H](Cc2cnc[nH]2)C(=O)N[C@@H](CC(C)C)C(=O)N(C)CC(=O)N[C@@H](Cc2c[nH]c3ccccc23)C(=O)N[C@@H](CN)C(=O)N[C@@H](Cc2c[nH]c3ccccc23)C(=O)N1C [Example 5002] ({CH2CO}-F[NMeA]NPHL[Sar]W[Dap]W[NMeNle][NMeNle]RCG-NH2; thioether N-14),> 30.5,> 74.3
CCCC[C@H]1C(=O)N(C)[C@@H](CCCC)C(=O)N[C@@H](CC(C)C)C(=O)N[C@H](C(=O)NCC(N)=O)CSCC(=O)N[C@@H](Cc2ccc(O)cc2)C(=O)N(C)[C@@H](C)C(=O)N[C@@H](CC(N)=O)C(=O)N2CCC[C@H]2C(=O)N[C@@H](Cc2c[nH]cn2)C(=O)N[C@@H](CCC(=O)O)C(=O)N2C[C@H](O)C[C@H]2C(=O)N[C@@H](Cc2c[nH]c3ccccc23)C(=O)N[C@@H](CO)C(=O)N[C@@H](Cc2c[nH]c3ccccc23)C(=O)N1C [Example 5003] ({CH2CO}-Y[NMeA]NPHE[Hyp]WSW[NMeNle][NMeNle]LCG-NH2; thioether N-14),6.76 to 30.3,0.158 to 4.71

# Source: patent publication US9850283B2, “Macrocyclic inhibitors of the PD-1/PD-L1 and CD80(B7-1)/PD-L1 protein/protein interactions” (BRISTOL-MYERS SQUIBB COMPANY, priority 2013, dated 2017)
